Test results: US20190119298A1, “FUSED 3-PHENYLTETRAMIC ACID DERIVATIVES HAVING HERBICIDAL ACTION” (Bayer CropScience Aktiengesellschaft, priority 2016, published 2019)

How the values were obtained:
Assay type in all cases: in vivo
Alopecurus myosuroides = assay: Pre-emergence herbicidal effect; details: 320 g/ha, scored visually after 3 weeks vs untreated controls, 100% = plants have died
Text: (§1) Seeds of monocotyledonous and dicotyledonous weed plants and crop plants are laid out in sandy loam soil in wood-fibre pots and covered with soil. The compounds of the invention, formulated in the form of wettable powders (WP) or as emulsion concentrates (EC), are then applied to the surface of the covering soil as aqueous suspension or emulsion at a water application rate equating to 600 to 800 L/ha with addition of 0.2% wetting agent. After the treatment, the pots are placed in a greenhouse and kept under good growth conditions for the trial plants. The damage to the test plants is scored visually after a test period of 3 weeks by comparison with untreated controls (herbicidal activity in percent (%): 100% activity=the plants have died, 0% activity=like control plants). ALOMY: Alopecurus myosuroides

Lolium multiflorum = assay: Pre-emergence herbicidal effect; details: 320 g/ha, scored visually after 3 weeks vs untreated controls, 100% = plants have died
Text: as §1, with “LOLMU: Lolium multiflorum” for “ALOMY: Alopecurus myosuroides”

Echinochloa crus-galli [1] = assay: Post-emergence herbicidal effect; details: one-leaf stage, 320 g/ha, assessed visually after about 3 weeks, 100% = plants have died
Method: (§2) ECHCG: Echinochloa crus-galli Seeds of monocotyledonous and dicotyledonous weed and crop plants are laid out in sandy loam soil in wood-fibre pots, covered with soil and cultivated in a greenhouse under good growth conditions. 2 to 3 weeks after sowing, the test plants are treated at the one-leaf stage. The compounds of the invention, formulated in the form of wettable powders (WP) or as emulsion concentrates (EC), are then sprayed onto the green parts of the plants as aqueous suspension or emulsion at a water application rate equating to 600 to 800 L/ha with addition of 0.2% wetting agent. After the test plants have been left to stand in the greenhouse under optimal growth conditions for about 3 weeks, the action of the preparations is assessed visually in comparison to untreated controls (herbicidal action in percent (%): 100% activity=the plants have died, 0% activity=like control plants).

Avena fatua [2] = assay: Post-emergence herbicidal effect; details: one-leaf stage, 320 g/ha, assessed visually after about 3 weeks, 100% = plants have died
Method: as §2, with “AVEFA: Avena fatua” for “ECHCG: Echinochloa crus-galli”

Setaria viridis [3] = assay: Post-emergence herbicidal effect; details: one-leaf stage, 320 g/ha, assessed visually after about 3 weeks, 100% = plants have died
Method: as §2, with “SETVI: Setaria viridis” for “ECHCG: Echinochloa crus-galli”

Avena fatua [4] = assay: Pre-emergence herbicidal effect; details: 320 g/ha, scored visually after 3 weeks vs untreated controls, 100% = plants have died
Text: as §1, with “AVEFA: Avena fatua” for “ALOMY: Alopecurus myosuroides”

Setaria viridis [5] = assay: Pre-emergence herbicidal effect; details: 320 g/ha, scored visually after 3 weeks vs untreated controls, 100% = plants have died
Text: as §1, with “SETVI: Setaria viridis” for “ALOMY: Alopecurus myosuroides”

Echinochloa crus-galli [6] = assay: Pre-emergence herbicidal effect; details: 320 g/ha, scored visually after 3 weeks vs untreated controls, 100% = plants have died
Text: as §1, with “ECHCG: Echinochloa crus-galli” for “ALOMY: Alopecurus myosuroides”

Structure (SMILES) | Pre-emergence action ALOMY (herbicidal activity in percent) (Alopecurus myosuroides) [%] | Pre-emergence action LOLMU (herbicidal activity in percent) (Lolium multiflorum) [%] | Post-emergence effectiveness ECHCG (herbicidal action in percent) (Echinochloa crus-galli [1]) [%] | Post-emergence effectiveness AVEFA (herbicidal action in percent) (Avena fatua [2]) [%] | Post-emergence effectiveness SETVI (herbicidal action in percent) (Setaria viridis [3]) [%] | Pre-emergence action AVEFA (herbicidal activity in percent) (Avena fatua [4]) [%] | Pre-emergence action SETVI (herbicidal activity in percent) (Setaria viridis [5]) [%] | Pre-emergence action ECHCG (herbicidal activity in percent) (Echinochloa crus-galli [6]) [%]
COc1cc(C)cc(Cl)c1C1=C(O)C2CCOCCN2C1=O (centres unmarked) [Ia-1-8] | 90 | 100 |  |  |  |  |  | 
Cc1cc(C)c(C2=C(O)C3=CCOCCN3C2=O)c(C)c1 [Ia-3-1] |  |  | 90 | 80 |  |  |  | 
CCc1cc(C)cc(C)c1C1=C(O)C2=CCOCCN2C1=O [Ia-3-2] |  |  | 100 | 100 |  |  |  | 
CCc1cc(C)cc(CC)c1C1=C(O)C2=CCOCCN2C1=O [Ia-3-3] | 80 | 100 | 100 |  | 100 |  |  | 
CCc1cc(C)cc(CC)c1C1=C(OC(=O)OCCOC)C2CCOCCN2C1=O (centres unmarked) [Ib-1-5] | 100 | 100 |  |  |  | 100 | 100 | 100
COC(=O)OC1=C(c2c(Cl)cc(C)cc2OC)C(=O)N2CCOCCC12 (centres unmarked) [Ib-1-21] | 100 | 100 |  |  |  | 90 | 100 | 100
CCOC(=O)OC1=C(c2c(Cl)cc(C)cc2OC)C(=O)N2CCOCCC12 (centres unmarked) [Ib-1-22] | 90 | 100 |  |  |  | 100 | 100 | 100
COc1cc(C)cc(Cl)c1C1=C(OC(=O)C(C)(C)C)C2CCOCCN2C1=O (centres unmarked) [Ib-1-23] | 100 | 100 |  |  |  | 90 | 100 | 100
COc1cc(C)cc(Cl)c1C1=C(OC(C)=O)C2CCOCCN2C1=O (centres unmarked) [Ib-1-24] | 90 | 100 |  |  |  | 90 | 100 | 100
CCOC(=O)OC1=C(c2ccc(C)cc2OC)C(=O)N2CCOCCC12 (centres unmarked) [Ib-1-26] | 90 | 90 |  |  |  |  |  | 
CC(=O)OC1=C(c2c(C)cc(C)cc2C)C(=O)N2CCCOCC12 (centres unmarked) [Ib-2-1] |  |  | 100 |  | 100 |  |  | 
COC(=O)OC1=C(c2c(C)cc(C)cc2C)C(=O)N2CCCOCC12 (centres unmarked) [Ib-2-2] |  |  | 90 |  | 90 |  |  | 
CCOC(=O)OC1=C(c2c(C)cc(C)cc2C)C(=O)N2CCCOCC12 (centres unmarked) [Ib-2-3] |  |  | 90 |  | 90 |  |  | 
Cc1cc(C)c(C2=C(OC(=O)C(C)(C)C)C3COCCCN3C2=O)c(C)c1 (centres unmarked) [Ib-2-4] |  |  | 90 |  | 100 |  |  | 
CCc1cc(C)cc(CC)c1C1=C(OC(=O)OC)C2COCCCN2C1=O (centres unmarked) [Ib-2-5] |  |  | 100 |  | 100 |  |  | 
CCOC(=O)OC1=C(c2c(CC)cc(C)cc2CC)C(=O)N2CCCOCC12 (centres unmarked) [Ib-2-6] |  |  | 100 |  | 100 |  |  | 
CCOC(=O)OC1=C(c2c(CC)cc(C)cc2CC)C(=O)N2CCOCC=C12 [Ib-3-2] |  |  | 80 |  | 90 |  |  | 
CCc1cc(C)cc(CC)c1C1=C(OC(=O)C(C)(C)C)C2=CCOCCN2C1=O [Ib-3-3] |  |  | 90 |  | 100 |  |  | 
CCc1cc(C)cc(C)c1C1=C(OC(=O)OC)C2=CCOCCN2C1=O [Ib-3-5] | 100 | 80 | 90 |  | 90 |  |  | 
CCOC(=O)OC1=C(c2c(C)cc(C)cc2CC)C(=O)N2CCOCC=C12 [Ib-3-6] |  |  | 90 |  | 90 |  |  | 
CCc1cc(C)cc(C)c1C1=C(OC(=O)C(C)(C)C)C2=CCOCCN2C1=O [Ib-3-7] |  |  | 90 |  | 100 |  |  | 
CCOC(=O)OC1=C(c2c(CC)cc(Cl)cc2OC)C(=O)N2CCOCC=C12 [Ib-3-9] |  |  | 90 |  | 100 |  |  | 
CCOC(=O)OC1=C(c2c(C)cc(Br)cc2C)C(=O)N2CCOCC=C12 [Ib-3-11] |  |  | 80 |  | 90 |  |  | 
COc1cc(C)cc(Cl)c1C1=C(OC(C)=O)C2=CCOCCN2C1=O [Ib-3-13] | 100 | 100 |  |  |  | 90 | 100 | 100
COc1cc(C)cc(Cl)c1C1=C(OC(=O)C(C)(C)C)C2=CCOCCN2C1=O [Ib-3-16] | 90 | 90 |  |  |  |  | 90 | 80
